Assay results from ChEMBL document CHEMBL1123968, “Isoprenoid (phosphinylmethyl)phosphonates as inhibitors of squalene synthetase” (J Med Chem, 1988).
pIC50: −log10 of the molar value.

Each compound was assayed against T1, Squalene synthase (Rattus norvegicus, UniProt Q02769) (assay: Inhibition of squalene synthetase was determined in rat liver microsomes). Conditions: read-out: I50.
T1 sequence (Q02769 whole entry): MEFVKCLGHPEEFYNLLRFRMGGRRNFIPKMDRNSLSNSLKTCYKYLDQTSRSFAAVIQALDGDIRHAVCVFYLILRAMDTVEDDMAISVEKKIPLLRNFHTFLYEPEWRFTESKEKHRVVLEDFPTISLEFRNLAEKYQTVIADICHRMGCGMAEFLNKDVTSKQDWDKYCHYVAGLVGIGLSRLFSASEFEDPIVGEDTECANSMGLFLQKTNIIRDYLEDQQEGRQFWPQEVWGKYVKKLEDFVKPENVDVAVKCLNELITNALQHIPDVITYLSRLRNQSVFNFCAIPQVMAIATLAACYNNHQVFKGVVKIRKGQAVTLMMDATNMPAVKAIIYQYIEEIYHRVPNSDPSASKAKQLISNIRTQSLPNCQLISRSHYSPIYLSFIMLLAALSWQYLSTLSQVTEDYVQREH
Set-up: species or system Microsome

| SMILES | pIC50 |
| --- | --- |
| CC(C)=CCC/C(C)=C/CC/C(C)=C/C=C/P(=O)(O)C(F)(F)P(=O)(O)O | 4.81 |
| CC(C)=CCC/C(C)=C/CC/C(C)=C/CCP(=O)(O)OP(=O)(O)O | 4.38 |
| CC(C)=CCC/C(C)=C/CC/C(C)=C/CCP(=O)(O)CP(=O)(O)O | 4.50 |
| COP(=O)(O)CP(=O)(O)CC/C=C(\C)CC/C=C(\C)CCC=C(C)C | 3.75 |
| CC(C)=CCC/C(C)=C/CC/C(C)=C/CCCP(=O)(O)CP(=O)(O)O | 4.17 |
| CC(C)=CCC/C(C)=C/CC/C(C)=C/CCP(=O)(O)C(F)(F)P(=O)(O)O | 4.52 |
| CC(C)=CCC/C(C)=C/CC/C(C)=C/C=C/P(=O)(O)CP(=O)(O)O | 4.91 |
